The target of the assay is α7 nAChR subtype (Rattus norvegicus, UniProt Q05941). The format is binding. The conditions noted are these: read-out: KD of radioligand.
Chain of α7 nAChR subtype (Q05941 23-502 limits assumed): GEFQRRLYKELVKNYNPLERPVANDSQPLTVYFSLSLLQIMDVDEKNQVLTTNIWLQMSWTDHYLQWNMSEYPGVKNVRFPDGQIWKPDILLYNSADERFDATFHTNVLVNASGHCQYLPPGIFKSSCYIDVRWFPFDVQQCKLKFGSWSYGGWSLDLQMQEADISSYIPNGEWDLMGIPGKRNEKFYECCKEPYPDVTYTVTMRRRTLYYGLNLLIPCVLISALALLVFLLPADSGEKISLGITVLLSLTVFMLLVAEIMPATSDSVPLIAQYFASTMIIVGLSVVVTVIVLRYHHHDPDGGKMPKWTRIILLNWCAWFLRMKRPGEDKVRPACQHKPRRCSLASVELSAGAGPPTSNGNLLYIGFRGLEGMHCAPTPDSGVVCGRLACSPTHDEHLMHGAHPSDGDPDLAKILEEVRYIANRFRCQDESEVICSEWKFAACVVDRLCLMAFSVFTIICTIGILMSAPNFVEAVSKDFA

For the substance [^125I]-α-Bungarotoxin [[^125I]-α-BTX], the dissociation constant Kd was found to be 1.67 nM.

For orientation: Kd means the concentration at which binding is half-saturated.

The values are drawn from US7417050B2 (priority 2002, dated 2008).
